Patent US20230011652A1, “COMPOUNDS AND COMPOSITIONS FOR TREATING CONDITIONS ASSOCIATED WITH NLRP ACTIVITY” (Novartis AG, priority 2018, published 2023)

Columns and labels:
[1] = system: IL-1β production in PMA-differentiated THP-1 cells; assay: IL-1β production in PMA-differentiated THP-1 cells stimulated with gramicidin (hTHP-1 assay, 2% fetal bovine serum); type: cell-based; details: Homo sapiens, average, read-out: hTHP-1 IC50 (Average IC50 of compounds in hTHP-1 assay)
Protocol: Procedure 1: IL-1β production in PMA-differentiated THP-1 cells stimulated with Gramicidin.
THP-1 cells were purchased from the American Type Culture Collection and sub-cultured according to instructions from the supplier. Prior to experiments, cells were cultured in complete RPMI 1640 (containing 10% heat inactivated FBS, penicillin (100 units/ml) and streptomycin (100 μg/ml)), and maintained in log phase prior to experimental setup. Prior to the experiment THP-1 were treated with PMA (Phorbol 12-myristate 13-acetate) (20 ng/ml) for 16-18 hours. Compounds were dissolved in dimethyl sulfoxide (DMSO) to generate a 30 mM stock. On the day of the experiment the media was removed and adherent cells were detached with trypsin for 5 minutes. Cells were then harvested, washed with complete RPMI 1640, spun down, resuspended in RPMI 1640 (containing 2% heat inactivated FBS, penicillin (100 units/ml) and streptomycin (100 μg/ml). The cells were plated in a 384-well plate at a density of 50,000 cells/well (final assay volume 50 μl). Compounds were first dissolved in assay medium to obtain a 5× top concentration of 500 μM. 10 step dilutions (1:3) were then undertaken in assay medium containing 1.67% DMSO. 5× compound solutions were added to the culture medium to achieve desired final concentration (e.g. 100, 33, 11, 3.7, 1.2, 0.41, 0.14, 0.046, 0.015, 0.0051, 0.0017 μM). Final DMSO concentration was at 0.37%. Cells were incubated with compounds for 1 hour and then stimulated with gramicidin (5 μM) (Enzo) for 2 hours. Plates were then centrifuged at 340 g for 5 min. Cell free supernatant (40 μL) was collected using a 96-channel PlateMaster (Gilson) and the production of IL-1β was evaluated by HTRF (cisbio). A vehicle only control and a dose titration of CRID3 (100-0.0017 μM) were run concurrently with each experiment. Data was normalized to vehicle-treated samples (equivalent to 0% inhibition) and CRID3 at 100 μM (equivalent to 100% inhibition).
(§1) 1.1 Cell Culture • 1) Culture THP-1 cells in the complete RPMI-1640 medium with 10% FBS at 37° C., 5% CO2. • 2) Passage the cells every 3 days by inoculating 3×10^5 cells per ml.
(§2) 1.2 Compound Preparation • Prepare the 3-fold serial dilution of the compounds with DMSO in a 384-well LDV Microplate using TECAN EVO system to generate the compound source plate with 10 concentrations. Top concentration is 30 mM.
(§3) 1.3 Cell Preparation • 1) Centrifuge THP-1 cells at 350 g for 5 min. • 2) Re-suspend cells with complete RMPI-1640 medium, and count cells. • 3) Seed cells in T225 flask, about 2.5×10^7 per flask, treat cells with 20 ng/ml PMA (final DMSO concentration<1%). • 4) Incubate overnight.
1.4 THP-1 Stimulation • 1) Wash adherent THP-1 cells with PBS, and detach cells with 4 ml trypsin for T225 flask. • 2) Centrifuge cells at 350 g for 5 min, re-suspend cells with RPMI-1640 containing 2% FBS and count cells with trypan blue. • 3) Transfer 50 nl/well the serial dilution of test compound to 384-well plate by Echo; For the high control and first point of CRID3 (MCC950), transfer 165 nl, then backfill to make the DMSO concentration is consistent in all wells, the plate layout is as below. • 4) Seed 50k cells in 40 ul RPMI-1640 with 2% FBS per well in 384-well plate. • 5) Incubate for 1 h at 37′C, 5% CO2. • 6) Prepare 5× gramicidin, add 10 μl per well, the final concentration is 5 μM, incubate for 2 hrs at 37° C., 5% CO2. • 7) Centrifuge at 350 g for 1 min. • 8) Pipet 16 μl supernatant by apricot, and transfer into white 384 proxiplate. FIG. 3 depicts the layout of the plates: HC: 100 μM CRID3 (MCC950)+5 μM gramicidin LC: 5 μM Gramicidin.
1.5 IL-1β detection • 1) Homogenize the 5× diluent #5 with a vortex and add 1 volume of stock solution in 4 volumes of distilled water. • 2) Thaw 20× stock solution of anti-IL1β-Cryptate-antibody and anti-IL1β XL-antibody. […]

[2] = system: IL-1β production in PMA-differentiated THP-1 cells; assay: hTHP-1 assay containing 10% fetal bovine serum (IL-1β production, gramicidin stimulation); type: cell-based; details: Homo sapiens, Table 4, average, read-out: hTHP-1 IC50 in 10% FBS (Average IC50 of compounds in hTHP-1 assay)
Protocol: as §1, §2, §3
FIG. 3 depicts the layout of the plates: HC: 100 μM CRID3 (MCC950)+5 μM gramicidin LC: 5 μM Gramicidin.
1.5 IL-1β detection • 1) Homogenize the 5× diluent #5 with a vortex and add 1 volume of stock solution in 4 volumes of distilled water. • 2) Thaw 20× stock solution of anti-IL1β-Cryptate-antibody and anti-IL1β XL-antibody. Dilute these two antibodies to 1× with detection buffer #3. • 3) Pre-mix the two ready-to-use antibody solutions just prior to use. • 4) Dispense 4 ul of pre-mixed Anti-IL1β antibodies working solution into all wells. • 5) Seal the plate and incubate overnight at 4° C. • 6) Read the cell plate using EnVison and plot Readout vs. the test compound concentration to calculate the IC50.
• 1. IC50 of compounds can be calculated using the following formulas
% inhibition=100−100×[HCave−Readout/(HCave−LCave)] Formula for IC50 • 2. Fit the normalized data in a dose-response manner using XLfit, and calculate the compound concentration.

[3] = Table 2, hTHP-1 assay containing 2% fetal bovine serum
[4] = Table 3, hTHP-1 assay containing 2% fetal bovine serum

Compound	IC50 [1, 3] [nM]	other results
O=C(Nc1c2c(cc3c1CC3)CCC2)NS(=O)(=O)c1cnn2c1OC[C@H](O)C2 [Compound 402, (R)-6-hydroxy-N-((2,4,5,6-tetrahydro-1H-cyclobuta[f]inden-3-yl)carbamoyl)-6,7-dihydro-5H-pyrazolo[5,1-b][1,3]oxazine-3-sulfonamide]	40 to 200	
O=C(Nc1c2c(cc3c1CCC3)CCC2)NS(=O)(=O)c1cnn2c1OC[C@H](OC(=O)Nc1c3c(cc4c1CCC4)CCC3)C2 [Compound 403, (R)-3-(N-((1,2,3,5,6,7-hexahydro-s-indacen-4-yl)carbamoyl)sulfamoyl)-6,7-dihydro-5H-pyrazolo[5,1-b][1,3]oxazin-6-yl (1,2,3,5,6,7-hexahydro-s-indacen-4-yl)carbamate]	5000 to 30000	
CC(C)(O)c1coc(S(=O)(=O)NC(=O)Nc2c3c(cc4c2CC4)CCC3)c1 [Compound 301, 4-(2-Hydroxypropan-2-yl)-N-((2,4,5,6-tetrahydro-1H-cyclobuta[f]inden-3-yl)carbamoyl)furan-2-sulfonamide]		IC50 [1, 4]: 40 to 200 nM
O=C(Nc1c2c(cc3c1CC3)CCC2)NS(=O)(=O)c1cnn2c1OCCC2 [Compound 8, N-((2,4,5,6-tetrahydro-1H-cyclobuta[f]inden-3-yl)carbamoyl)-6,7-dihydro-5H-pyrazolo[5,1-b][1,3]oxazine-3-sulfonamide]	200 to 1000	
Cc1c(C2CC2)nc2c(c1NC(=O)NS(=O)(=O)c1cnn3c1OCCC3)CCC2 [Compound 16, Sodium ((2-cyclopropyl-3-methyl-6,7-dihydro-5H-cyclopenta[b]pyridin-4-yl)carbamoyl)((6,7-dihydro-5H-pyrazolo[5,1-b][1,3]oxazin-3-yl)sulfonyl)amide]	1000 to 5000	
O=C(Nc1c2c(nc3c1CCC3)CCC2)NS(=O)(=O)c1cnn2c1OCCC2 [Compound 12, Sodium ((6,7-dihydro-5H-pyrazolo[5,1-b][1,3]oxazin-3-yl)sulfonyl)((1,2,3,5,6,7-hexahydrodicyclopenta[b,e]pyridin-8-yl)carbamoyl)amide]	200 to 1000	
CCn1cc(F)c(S(=O)(=O)NC(=O)Nc2c3c(cc4c2CCC4)CCC3)n1 [Example 16, 1-Ethyl-4-fluoro-N-((1,2,3,5,6,7-hexahydro-s-indacen-4-yl)carbamoyl)-1H-pyrazole-3-sulfonamide]		IC50 [2]: 200 to 1000 nM
CCn1cc(F)c(S(=O)(=O)NC(=O)Nc2c3c(cc4c2CC4)CCC3)n1 [Example 18, 1-Ethyl-4-fluoro-N-((2,4,5,6-tetrahydro-1H-cyclobuta[f]inden-3-yl)carbamoyl)-1H-pyrazole-3-sulfonamide]		IC50 [2]: 200 to 1000 nM
CC(C)n1ccc(S(=O)(=O)NC(=O)Nc2c3c(cc4c2CC4)CCC3)n1 [Compound 302, 1-Isopropyl-N-((2,4,5,6-tetrahydro-1H-cyclobuta[f]inden-3-yl)carbamoyl)-1H-pyrazole-3-sulfonamide]		IC50 [1, 4]: 1000 to 5000 nM
CC1(C)CCc2c1nc1c(c2NC(=O)NS(=O)(=O)c2cnn3c2OCCC3)CCC1 [Compound 14]	1000 to 5000	
O=C(Nc1c2c(cc3c1CC3)CC2)NS(=O)(=O)c1cnn2c1OCCC2 [Compound 9, N-(tricyclo[6.2.0.03,6]deca-1,3(6),7-trien-2-ylcarbamoyl)-6,7-dihydro-5H-pyrazolo[5,1-b][1,3]oxazine-3-sulfonamide]	40 to 200	
CCn1ccc(S(=O)(=O)NC(=O)Nc2c3c(cc4c2CC4)CCC3)n1 [Example 19, 1-Ethyl-N-((2,4,5,6-tetrahydro-1H-cyclobuta[f]inden-3-yl)carbamoyl)-1H-pyrazole-3-sulfonamide]		IC50 [2]: 200 to 1000 nM
O=C(Nc1cc2c(c3c1CCC3)CCC2)NS(=O)(=O)c1cnn2c1OCCC2 [Compound 10, N-((1,2,3,6,7,8-hexahydro-as-indacen-4-yl)carbamoyl)-6,7-dihydro-5H-pyrazolo[5,1-b][1,3]oxazine-3-sulfonamide]	1000 to 5000	
CN[C@H]1COc2c(S(=O)(=O)NC(=O)Nc3c4c(cc5c3CC5)CCC4)cnn2C1 [Compound 401, (R)-6-(methylamino)-N-((2,4,5,6-tetrahydro-1H-cyclobuta[f]inden-3-yl)carbamoyl)-6,7-dihydro-5H-pyrazolo[5,1-b][1,3]oxazine-3-sulfonamide]	< 8	
C[C@@H]1CCc2c1nc1c(c2NC(=O)NS(=O)(=O)c2cnn3c2OCCC3)CCC1 [Compound 404]	200 to 1000	
O=C(Nc1c2c(nc3c1CCC31CC1)CCC2)NS(=O)(=O)c1cnn2c1OCCC2 [Compound 15, Sodium ((6,7-dihydro-5H-pyrazolo[5,1-b][1,3]oxazin-3-yl)sulfonyl)((1′,5′,6′,7′-tetrahydro-2′H-spiro[cyclopropane-1,3′-dicyclopenta[b,e]pyridin]-8′-yl)carbamoyl)amide]	1000 to 5000	
CC1CCc2c1nc1c(c2NC(=O)NS(=O)(=O)c2cnn3c2OCCC3)CCC1 (stereo not drawn) [Compound 13, Sodium ((6,7-dihydro-5H-pyrazolo[5,1-b][1,3]oxazin-3-yl)sulfonyl)((3-methyl-1,2,3,5,6,7-hexahydrodicyclopenta[b,e]pyridin-8-yl)carbamoyl)amide]	200 to 1000	
CCn1ccc(S(=O)(=O)NC(=O)Nc2c3c(cc4c2CCC4)CCC3)n1 [Example 17, 1-Ethyl-N-((1,2,3,5,6,7-hexahydro-s-indacen-4-yl)carbamoyl)-1H-pyrazole-3-sulfonamide]		IC50 [2]: 1000 to 5000 nM
